Consider 1 compound from patent publication US5334761A, “Cationic lipids” (Life Technologies, Inc., priority 1992, dated 1994).

Where a name gives a salt, the structure may show the parent alone.

A short description of data set [1]: % protein (toxicity estimate, Bradford) after transfection. Format: cell-based. To be noted: monkey, cos-7 cells; 12 μg lipid; 1 μg pSV2CAT; 6 h DMEM. Here is the method:
(§1) A one-to-one mixture (by weight) of the desired lipid and dioleylphosphatidyl ethanolamine was prepared in CHCl3. The CHCl3 was removed on the rotary evaporator to obtain a thin film of lipid mixture. The mixture was hydrated with enough water to obtain approximately 1.25 mg of lipid per ml of solution. The solution was passed through a microfluidizer twice and diluted to 1 mg/ml. The liposome formulation was then filtered through a 0.2 μ filter. Compound 8 was also formulated without DOPE either by sonication at 1 mg/ml in water or by dissolving a dried lipid film with ethanol and then adding water to give a final concentration of 2.5 mg/ml. Ethanol was 10% of that volume. In some instances, this was further diluted with water to 1 mg/ml, 4% ethanol.
(§2) Baby hamster kidney (BHK-21) , COS-7, HeLa-S3 cells, and normal human fibroblasts isolated from newborn foreskin dermis were grown in Dulbecco's-modified Eagle's medium (DMEM) containing 10% fetal bovine serum (FBS), 2 mM L-glutamine (gln), 0.1 mM MEM nonessential amino acids (NEAA), 100 U/ml penicillin, and 100 μg/ml streptomycin. […]
(§3) The "% protein" column indicates the relative amount of protein in the sample tested for CAT activity and therefore provides a way to estimate toxicity of the compounds being tested. […] Protein was measured using a commercially available Bradford protein assay (BioRad Laboratories, Richmond, Ca.). […]

Assay in data set [2]: as above
Format: cell-based, human. To be noted: human, jurkat cells, 15 μg lipid; 2 μg pCMVCAT; 6 h RPMI1640. Here is the method: as §1
(§4) Baby hamster kidney (BHK-21) , COS-7, HeLa-S3 cells, and normal human fibroblasts isolated from newborn foreskin dermis were grown in Dulbecco's-modified Eagle's medium (DMEM) containing 10% fetal bovine serum (FBS), 2 mM L-glutamine (gln), 0.1 mM MEM nonessential amino acids (NEAA), 100 U/ml penicillin, and 100 μg/ml streptomycin. NIH-3T3 cells were grown in DMEM containing 10% calf serum (CS), 2 mMgln, 0.1 mM NEAA 100 U/ml penicillin, and 100 μg/ml streptomycin. PC12 cells were grown in DMEMcontaining 10% horse serum, 5% FBS, 2 mM gln, 0 1 mMNEAA, 100 U/ml penicillin and 100 μ/ml streptomycin. Jurkat cells (human lymphoid cell line) were grown in RPMI-1640 supplemented with 10% FBS, 2mML-glutamine, 100 U/ml penicillin, and 100 μg/ml streptomycin. Human keratinocytes were isolated from newborn foreskin epidermis and cultured in Keratinocyte Growth Medium (Clonetics, San Diego, Ca.). All cell lines were maintained in a humidified incubator with a 5% CO2 atmosphere at 37° C.
(§5) For transient nuclear expression of pSV2CAT or pCMVCAT in Jurkat cells, cells were washed with Opti-MEM I or serum-free RPMI 1640 containing 2 mM gln and plated in six-well plates at a density of 3×10^6 cells per well in 0.8 ml Opti-MEM I or RPMI 1640. For each transfection, 5 μg pSV2CAT DNA or 2 μg pCMVCAT DNA was diluted in 100 μl Opti-MEM I. Lipids were diluted separately in another 100 μl aliquot of Opti-MEMI. The two solutions were then mixed in a polystyrene tube and incubated for 10-15 min at room temperature. The DNA-liposome complex was added to the cell suspensions and incubated 6 hours at 37° C., after which 4 ml growth medium were added per well (RPMI-1640; 10% FBS). Phorbol myristate acetate (Sigma Chemical Co., St. Louis, Mo.) and phytohemagglutinin (Sigma) were also added to a final concentration of 50 ng/ml and 1 μg/ml, respectively, to activate the cells. Cells were harvested at approximately 48 hours post-transfection by centrifugation. Cell lysates were prepared by resuspending cell pellets at 0° C. in 0.1 M Tris-HC1 pH 8.0 containing 0.1% Triton X-100 and freeze-thawing once. Cell lysates were cleared by centrifugation and assayed for CAT activity.
(§6) The "% protein" column indicates the relative amount of protein in the sample tested for CAT activity and therefore provides a way to estimate toxicity of the compounds being tested. The "CAT Activity" column indicates the relative transfection effectiveness of the lipid formulation in the various cell lines. The control sample was a cell culture grown under similar conditions as those that were transfected, but with no DNA or cationic lipid added. Protein was measured using a commercially available Bradford protein assay (BioRad Laboratories, Richmond, Ca.).
(§7) Jurkat cells (3 × 10^6 cells) were transfected in OPTIMEM with
(§8) μg of pSV2CAT DNA for 6 hours.
(§9) DNA-lipid complexes were made in OPTIMEM. Jurkat cells (3 × 10^
(§10) cells) were transfected in RPMI1640 with 2 μg of pCMVCAT DNA for 6

Data set [3] concerns Jurkat cells. The data set is described as above. Format: cell-based, human. To be noted: Jurkat. Here is the method: as §1, §4, §5, §6, §7, §8, §9, §10
Data set [4] concerns BHK-21 cells. Described as above. Format: cell-based, baby hamster. Here is the method: as §1, §2, §3
Assay in data set [5]: as above
To be noted: rat, pc12 cells; 40 μg lipid; 2 μg pCMVCAT; 6 h DMEM. Format: cell-based, rat. Here is the method:
as §1, §2, §3

The test system of data set [6] is PC12 cells. Described as above. Format: cell-based, rat. To be noted: PC12. As for the experimental part: as §1, §2, §3

For `CCCCCCCC/C=C\CCCCCCCCOCC(C[N+](C)(C)CCNC(=O)C(CCCNCCCN)NCCCN)OCCCCCCCC/C=C\CCCCCCCC` (stereo not drawn) [Compound 8, 1-Propanaminium, N-[2-[[2,5-bis[(3-amino]-1-oxopentyl]amino]ethyl]-n,n-dimethyl-2,3,-bis(9-octadecenyloxy)-, tetra(trifluoroacetate) salt], the values for the viability at 6 h in data set [1], in data set [2] and in data set [5] were 99.1%, 47% and 66%, respectively. For the same compound, the “toxicity (in words)” value in data set [3], in data set [4] and in data set [6] was “minimal toxicity” in each case.

Usually viability stands for a per cent measure of how many cells are alive, often set against a control.
